Results taken from ChEMBL document CHEMBL3872213, “Synthesis and biological activity of furoxan derivatives against Mycobacterium tuberculosis” (Eur J Med Chem, 2016).
Converted amounts (≈) assume the structure as drawn.

Legend:
[1] = system: Mycobacterium tuberculosis; assay: microbe, parasite or virus in culture; conditions: H37Rv ATCC 27294, 168 h
Description: Antitubercular activity against Mycobacterium tuberculosis H37Rv ATCC 27294 after 7 days by REMA method

[2] = system: Mycobacterium tuberculosis; type: functional; conditions: H37Rv ATCC 27294, 168 h
[3] = system: Mycobacterium tuberculosis; type: functional; conditions: H37Rv
[4] = system: Mycobacterium tuberculosis; type: functional; conditions: H37Rv ATCC 27294, 144 h
[5] = Induction of nitric oxide production assessed as nitrite level at 10^-4M measured after 1 hr in presence 1:50 molar excess of L-cysteine by Griess reagent based spectrophotometer relative to control; type: physicochemical; conditions: 100 µM
[6] = n-octanol-water partition coefficient, log P of the compound by HPLC method; type: physicochemical
in vitro [7] = conditions: mouse, J774A.1 cells
Description: Selectivity index, ratio of IC50 for mouse J774A.1 cells to MIC90 for Mycobacterium tuberculosis H37Rv ATCC 27294

[8] = Cytotoxicity against human MRC5 cells measured after 24 hrs by resazurin based fluorescence method; type: toxicity, cell-based
[9] = system: Mycobacterium tuberculosis; type: functional; conditions: H37Rv ATCC 27294, 168 h; remark: listed apart in the source
[10] = Cytotoxicity against mouse J774A.1 cells measured after 24 hrs by resazurin based fluorescence method; type: toxicity, J774.A1
in vitro [11] = conditions: human, MRC5 cells
Description: Selectivity index, ratio of IC50 for human MRC5 cells to MIC90 for Mycobacterium tuberculosis H37Rv ATCC 27294

[12] = Chemical stability in pH 7.4 PBS buffer assessed as compound degradation after 6 hrs by HPLC-MS/MS method; type: physicochemical; conditions: read-out: Drug degradation
[13] = Chemical stability in pH 5 PBS buffer after 6 hrs by HPLC-MS/MS method; type: physicochemical; conditions: pH 5, 6 h
[14] = Chemical stability in pH 7.4 PBS buffer assessed as compound degradation after 24 hrs by HPLC-MS/MS method; type: physicochemical; conditions: read-out: Drug degradation
[15] = Chemical stability in pH 5 PBS buffer assessed as compound degradation after 24 hrs by HPLC-MS/MS method; type: physicochemical; conditions: read-out: Drug degradation
[16] = Chemical stability in pH 1 PBS buffer assessed as compound degradation after 1 hr by HPLC-MS/MS method; type: physicochemical; conditions: read-out: Drug degradation
[17] = Chemical stability in pH 9 PBS buffer assessed as compound degradation after 1 hr by HPLC-MS/MS method; type: physicochemical; conditions: read-out: Drug degradation

| Compound | MIC90 [1] [µM] | Activity [5] | further results |
| --- | --- | --- | --- |
| O=C(CC(=O)C(F)(F)F)c1cccs1 | 10.9 (≈ 2.42 µg/mL) |  |  |
| c1csc(-c2nc3ccccc3s2)c1 | 50 (≈ 10.9 µg/mL) |  |  |
| CN(C)c1ccc(/C=N/c2ccc(O)cc2)cc1 | 15.6 (≈ 3.75 µg/mL) |  |  |
| C/C(=N\NC(=S)Nc1ccccc1)c1ccccn1 |  |  | MIC90 [2]: 15.6 µM (≈ 4.22 µg/mL) |
| O=S(=O)(c1ccccc1)c1no[n+]([O-])c1S(=O)(=O)c1ccccc1 | 6.2 (≈ 2.27 µg/mL) |  |  |
| O=C(N/N=C/c1ccc(O)cc1)c1ccncc1 | 1.04 (≈ 0.251 µg/mL) |  | MIC90 [3]: 1 µM (≈ 0.241 µg/mL) |
| CC(C)COC(=O)c1cnccn1 |  |  | MIC90 [4]: 2 µM (≈ 0.36 µg/mL) |
| O=Cc1cccc(Oc2no[n+]([O-])c2-c2ccccc2)c1 | > 62 | 23.1% |  |
| Cc1c(Oc2ccccc2C=O)no[n+]1[O-] | > 62 | 0% |  |
| Cc1c(Oc2cccc(/C=N/NC(=O)c3ccncc3)c2)no[n+]1[O-] | > 62 | 0.16% | logP [6]: 1.3 |
| O=C(N/N=C/c1cccc(Oc2no[n+]([O-])c2S(=O)(=O)c2ccccc2)c1)c1ccncc1 | 1.61 (≈ 0.749 µg/mL) | 38.5% | selectivity ratio (in vitro [7]): 3; IC50 at 24 h [8]: 30.1 µM; MIC90 [9]: > 62 µM; logP [6]: 2.3; IC50 at 24 h [10]: 4.3 µM; selectivity ratio (in vitro [11]): 14.1 |
| COc1cc(/C=N/c2ccc(O)cc2)cc(OC)c1OC | 15.6 (≈ 4.48 µg/mL) |  |  |
| Cc1c(Oc2cccc(C=O)c2)no[n+]1[O-] | > 62 | 0% |  |
| O=C(N/N=C/c1cccc(Oc2no[n+]([O-])c2-c2ccccc2)c1)c1ccncc1 | > 62 | 6.87% | logP [6]: 2.9 |
| O=C(N/N=C/c1ccc(Oc2no[n+]([O-])c2-c2ccccc2)cc1)c1ccncc1 | 11.8 (≈ 4.74 µg/mL) | 7.33% | selectivity ratio (in vitro [7]): 34.8; IC50 at 24 h [8]: 623 µM; MIC90 [9]: > 62 µM; logP [6]: 2.9; IC50 at 24 h [10]: 409 µM; selectivity ratio (in vitro [11]): 52.7 |
| O=Cc1ccccc1Oc1no[n+]([O-])c1-c1ccccc1 | > 62 | 25.1% |  |
| O=C(N/N=C/c1ccc(Oc2no[n+]([O-])c2S(=O)(=O)c2ccccc2)cc1)c1ccncc1 | 1.03 (≈ 0.479 µg/mL) | 43.5% | selectivity ratio (in vitro [7]): 12; IC50 at 24 h [8]: 43 µM; degraded at 6 h [12]: 15%; MIC90 [9]: > 62 µM; logP [6]: 2.1; Stability [13]: Stable; degraded at 24 h [14]: 20%; degraded at 24 h [15]: 20%; degraded at 1 h [16]: 90%; IC50 at 24 h [10]: 10.8 µM; degraded at 1 h [17]: 50%; selectivity ratio (in vitro [11]): 20.3 |
| O=C(NC(=S)N(c1ccccc1)c1ccccc1)c1ccccc1 | 25 (≈ 8.31 µg/mL) |  |  |
| O=C(N/N=C/c1ccccc1Oc1no[n+]([O-])c1-c1ccccc1)c1ccncc1 | > 62 | 11.2% | logP [6]: 2.7 |
| O=Cc1ccc(Oc2no[n+]([O-])c2S(=O)(=O)c2ccccc2)cc1 | 26 (≈ 9.01 µg/mL) | 24.4% | selectivity ratio (in vitro [7]): 0.1; IC50 at 24 h [10]: 2.2 µM |
| CCN(CC)C(=S)NC(=O)c1ccco1 | 25 (≈ 5.66 µg/mL) |  |  |
| CN(C)C(=S)NC(=O)c1ccccc1 | 25 (≈ 5.21 µg/mL) |  |  |
| O=Cc1ccc(Oc2no[n+]([O-])c2-c2ccccc2)cc1 | > 62 | 19.4% |  |

| Compound | MIC90 [1] [µM] | Activity [5] | further results |
| --- | --- | --- | --- |
| CCCCN(CCCC)C(=S)NC(=O)c1ccccc1 | 25 (≈ 7.31 µg/mL) |  |  |
| NC(=O)c1c(CBr)no[n+]1[O-] | 3 (≈ 0.666 µg/mL) |  |  |
| O=Cc1ccccc1Oc1no[n+]([O-])c1S(=O)(=O)c1ccccc1 | 20.2 (≈ 7.01 µg/mL) | 21.2% | selectivity ratio (in vitro [7]): 0.4; IC50 at 24 h [10]: 7.4 µM |
| Cc1c(Oc2ccc(/C=N/NC(=O)c3ccncc3)cc2)no[n+]1[O-] | > 62 | 2.02% | logP [6]: 1.3 |
| O=Cc1cccc(Oc2no[n+]([O-])c2S(=O)(=O)c2ccccc2)c1 | 20.9 (≈ 7.23 µg/mL) | 27.1% | selectivity ratio (in vitro [7]): 2; IC50 at 24 h [10]: 5.6 µM |
| O=[N+]([O-])c1ccc(/C=N/c2ccc(O)cc2)cc1 | 15.6 (≈ 3.78 µg/mL) |  |  |
| Cc1c(Oc2ccccc2/C=N/NC(=O)c2ccncc2)no[n+]1[O-] | > 62 | 0.35% | logP [6]: 1.4 |
| O=C(N/N=C/c1ccccc1Oc1no[n+]([O-])c1S(=O)(=O)c1ccccc1)c1ccncc1 | 8.6 (≈ 4 µg/mL) | 44.2% | selectivity ratio (in vitro [7]): 1.25; IC50 at 24 h [8]: 34.4 µM; MIC90 [9]: > 62 µM; logP [6]: 2.2; IC50 at 24 h [10]: 10.8 µM; selectivity ratio (in vitro [11]): 3.78 |
| Cc1c(Oc2ccc(C=O)cc2)no[n+]1[O-] | > 62 | 0% |  |
| C/C(=N\NC(N)=S)c1ccccn1 |  |  | MIC90 [2]: 31.3 µM (≈ 6.08 µg/mL) |
| O=C(CC(=O)C(F)(F)F)c1ccccc1 | 9.61 (≈ 2.08 µg/mL) |  |  |
| O=C(N/N=C/c1cccc(O)c1)c1ccncc1 | 104 (≈ 25 µg/mL) |  |  |
| CNC(=S)N/N=C(\C)c1ccccn1 |  |  | MIC90 [2]: 7.8 µM (≈ 1.62 µg/mL) |
| O=S(=O)(c1ccccc1)c1no[n+]([O-])c1-c1ccccc1 | 82 (≈ 24.8 µg/mL) |  |  |
| COc1ccc(/C=N/CC/N=C/c2ccc(OC)cc2)cc1 | 25 (≈ 7.41 µg/mL) |  |  |
| N[C@@H]1CONC1=O [CYCLOSERINE] |  |  | MIC90 [3]: 245 µM (≈ 25 µg/mL) |
| NNC(=O)c1ccncc1 [ISONIAZID] | 0.11 (≈ 0.0151 µg/mL) | 0% |  |
| O=[N+]([O-])O[C@H]1CO[C@H]2[C@@H]1OC[C@H]2O[N+](=O)[O-] [ISOSORBIDE DINITRATE] |  | 7.17 to 7.5 mol/mol |  |
| NC[C@H]1O[C@H](O[C@H]2[C@H](O)[C@@H](O[C@H]3O[C@H](CO)[C@@H](O)[C@H](N)[C@H]3O)[C@H](N)C[C@@H]2N)[C@H](O)[C@@H](O)[C@@H]1O [KANAMYCIN] |  |  | MIC90 [3]: 3.4 µM (≈ 1.65 µg/mL) |
| NC(=O)c1cnccn1 [PYRAZINAMIDE] |  |  | MIC90 [3]: > 48 µM |
| CO[C@H]1/C=C/O[C@@]2(C)Oc3c(C)c(O)c4c(O)c(c(/C=N/N5CCN(C)CC5)c(O)c4c3C2=O)NC(=O)/C(C)=C\C=C\[C@H](C)[C@H](O)[C@@H](C)[C@@H](O)[C@@H](C)[C@H](OC(C)=O)[C@@H]1C [RIFAMPIN] | 0.5 (≈ 0.411 µg/mL) | 0% |  |
| O=C(N/N=C/c1ccccc1O)c1ccncc1 [SALINAZID] | 12.4 (≈ 3 µg/mL) |  |  |
